Entries after “also recorded” stand apart in the source; their conditions may differ.
Tests used:
Type in all cases: cell-based
[1] = system: human dermal fibroblasts; HDFs; assay: Bodipy staining quantification in WA medium, four inhibitors, Example 49; settings: 16 μM compound and 1 μM Rosiglitazone, day 12, FIG. 53
[2] = system: Human normal skin-derived fibroblasts (HDFs); assay: Real-time RT-PCR of UCP1, CIDEA, KCNK3, Example 41; settings: ALK5 inhibitor II or LY2157299 (8 μM), Day 1 to Day 8; day 14; FIG. 45
Protocol: Human normal skin-derived fibroblasts (HDFs) were suspended in a general medium (DMEM added with 10% FBS). […] The adipocyte induction medium is DMEM added with 1 nM T3, 1 μM Rosiglitazone, 0.5 mM 3-isobutyl-1-methylxanthine (IBMX), 0.5 μM dexamethasone, 1 μg/mL Insulin and 10% FBS. Once every 2 days, the culture medium was exchanged with a fresh one, and culturing was performed from Day 1 to Day 8. Thereafter, from Day 9 to Day 14, the cells were cultured in an adipocyte induction medium free of ALK5 inhibitor II or LY2157299. On day 14, the culture medium was removed by suction from each well, washed with PBS(−) and total RNA was extracted from the cells by using RNA easy Mini Kit manufactured by Qiagen. cDNA was synthesized from the RNA by using Rever Tra Ace qPCR RT Master Mix. This cDNA was admixed with Real-time PCR Master Mix, primers specific to UCP-1 gene, CIDEA gene, KCNK3 gene or β actin gene and Taqman probe. qRT-PCR was performed using AB7300 Real-time PCR system. The mRNA level of UCP1 gene was quantified as a ratio to β-actin gene mRNA, and calculated with the value of fibroblast cultured in the general medium as 1.

[3] = system: human dermal fibroblasts; HDFs; assay: Bodipy staining in WA medium, four inhibitors, Example 48; settings: day 12, FIG. 52
[4] = system: Human normal skin-derived fibroblasts (HDFs); assay: Immunostaining of UCP1, four inhibitors, Example 40; settings: LY2157299 8 μM, SB431542 4 μM, D4476 4 μM, Day 1 to Day 8, day 14, FIG. 44
Protocol: Human normal skin-derived fibroblasts (HDFs) were suspended in a general medium (DMEM added with 10% FBS). […] The adipocyte induction medium is DMEM added with 1 nM T3, 1 μM Rosiglitazone, 0.5 mM 3-isobutyl-1-methylxanthine (IBMX), 0.5 μM dexamethasone, 1 μg/mL Insulin and 10% FBS. Once every 2 days, the culture medium was exchanged with a fresh one, and culturing was performed from Day 1 to Day 8. Thereafter, from Day 9 to Day 14, the cells were cultured in an adipocyte induction medium free of ALK5 inhibitor II, LY2157299, SB431542, D4476. On day 14, the culture medium was removed by suction from each well, and washed with PBS(−). After fixing with 4% para-formaldehyde, the well was washed with PBS (−), Permanent wave Buffer (0.2% Triton-X addition PBS) was added and the well was incubated for 15 min. After washing 3 times with PBS(−), Blocking One was added, and the mixture was incubated at room temperature for 60 min. Anti-UCP-1 antibody (RD MAB6158) was added and the mixture was reacted for 2 hrs at room temperature, and washed 3 times with Wash buffer. CF488-conjugated anti-mouse Ig antibody (Biotum 20014) was added and the mixture was reacted for 2 hrs at room temperature, and washed 3 times with PBS(−). After nuclear staining with SlowFade Gold antifade reagent with DAPI manufactured by Lifetechnology, the cells were photographed with a fluorescence microscope at ×100 magnification.

[5] = system: Human Epidermal Keratinocyte; NHEK (AD); assay: Real-time RT-PCR of UCP1 and CIDEA, keratinocyte to brown adipocyte, Example 43; settings: K-adipocyte induction medium; ALK5 inhibitor II 4 μM or LY2157299 8 μM, Day 1 to Day 8; day 14; FIG. 47
Protocol: Normal human epidermal keratinocyte (Human Epidermal Keratinocyte; NHEK (AD)) were suspended in a serum-free liquid medium for normal human epidermal keratinocyte proliferation (HuMedia-KG2; manufactured by Kurabo).
The K-adipocyte induction medium is HuMedia-KG2 added with 1 nM T3, 1 μM Rosiglitazone, 0.5 mM 3-isobutyl-1-methylxanthine (IBMX), 0.5 μM dexamethasone, and 1 μg/mL Insulin.
Once every 2 days, the culture medium was exchanged with a fresh one, and culturing was performed from Day 1 to Day 8. Thereafter, from Day 9 to Day 14, the cells were cultured in a medium free of ALK5 inhibitor II or LY2157299. On day 14, the culture medium was removed by suction from each well, washed with PBS(−) and total RNA was extracted from the cells by using RNA easy Mini Kit manufactured by Qiagen. cDNA was synthesized from the RNA by using Rever Tra Ace qPCR RT Master Mix. This cDNA was admixed with Real-time PCR Master Mix, primers specific to UCP-1 gene, CIDEA gene or β actin gene and Taqman probe. qRT-PCR was performed using AB7300 Real-time PCR system. The mRNA level of UCP1 gene and CIDEA gene was quantified as a ratio to β-actin gene mRNA level, and calculated with the value of fibroblast cultured in the general medium as 1.

[6] = system: Human normal skin-derived fibroblasts (HDFs); assay: Real-time RT-PCR of UCP1, four inhibitors, Example 39
Protocol: The addition concentration of the compound was 4 μM, 8 μM, 12 μM or 16 μM. […] Thereafter, in Day 9-Day 14, culturing was performed in a medium free of ALK5 inhibitor II, LY2157299, SB431542, D4476.

[7] = system: human dermal fibroblasts; HDFs; assay: Real-time PCR of AdipoQ, FABP4, PPAR-γ, four inhibitors with Rosiglitazone, Example 50; settings: WA medium added with 1 μM Rosiglitazone and 16 μM compound; day 12
Description: On day 12, RNA was recovered from the cells and, in the same manner as in Example 47, mRNA of AdipoQ, FABP4 (mature adipocyte marker), and PPAR-γ (preadipocyte marker) was quantified.

[8] = system: human dermal fibroblasts; HDFs; assay: Real-time RT-PCR of Sox9 and Aggrican in cartilage induction medium, Example 8; settings: ALK5 inhibitor II 2 μM, Cyclic Pifithrin-α 5 μM, day 18, FIG. 8
Protocol: The concentrations of the compounds are as follows: • Cyclic Pifithrin-α: 5 μM • ALK5 inhibitor II: 2 μM.

| SMILES | fat accumulation (BODIPY) / conversion to white adipocyte, co-addition of Rosiglitazone [1] | conversion of fibroblast to brown adipocyte, UCP1, CIDEA and KCNK3 mRNA [2] | lipid droplets stained with Bodipy, inhibitor alone ([3]; WA medium added with 16 μM compound alone) | lipid droplets stained with Bodipy / conversion to white adipocyte, inhibitor and Rosiglitazone ([3]; WA medium added with 16 μM compound and 1 μM Rosiglitazone) | conversion of fibroblast to brown adipocyte, UCP1 protein ([4]; ALK5 inhibitor II 4 μM) | staining with anti-UCP1 antibody ([4]; groups 3-6: ALK5 inhibitor II 4 μM) | conversion of epidermal keratinocyte to brown adipocyte, UCP1 and CIDEA mRNA [5] | conversion of fibroblast to brown adipocyte, UCP1 mRNA ([6]; 4 μM, 8 μM, 12 μM or 16 μM in adipocyte induction medium Day 1 to Day 8, then compound-free to day 14, FIG. 43) | efficiency in converting fibroblast to brown adipocyte (summary statement) ([6]; description, conditions not given) | conversion of human fibroblast to white adipocyte (mRNA markers) [7] | conversion of fibroblast to chondrocyte, Sox9 and Aggrican mRNA [8] |
| --- | --- | --- | --- | --- | --- | --- | --- | --- | --- | --- | --- |
| Cc1cccc(-c2nn3c(c2-c2ccnc4ccc(C(N)=O)cc24)CCC3)n1 [LY2157299, 4-[5,6-dihydro-2-(6-methyl-2-pyridinyl)-4H-pyrrolo[1,2-b]pyrazol-3-yl]-6-quinolinecarboxamide] | more strongly induced fat accumulation than by the addition of Rosiglitazone alone | converted fibroblast to brown adipocyte expressing UCP1 gene, CIDEA gene and KCNK3 gene | only a few cells contained lipid droplets stained with Bodipy | many cells were stained | converted fibroblast to brown adipocyte expressing UCP1 protein; also recorded: secondly | many cells were stained with anti-UCP1 antibody; also recorded: the second highest | converted normal human epidermal keratinocyte to brown adipocyte expressing UCP1 gene and CIDEA gene | converted fibroblast to brown adipocyte strongly expressing UCP1 gene; also recorded: secondly | highly efficient in converting fibroblast to brown adipocyte | converted human fibroblast to white adipocyte | – |
| Cc1ccc(-c2cn3c4c(sc3n2)CCCC4)cc1 [Cyclic Pifithrin-α] | – | – | – | – | – | – | – | – | – | – | does not promote conversion of fibroblast to chondrocyte |

Source: patent US11851681B2, “Cell preparation method” (KYOTO PREFECTURAL PUBLIC UNIVERSITY CORPORATION, priority 2015, dated 2023)
